Laboratory results as given in publication PMC12778052 (Science Advances, 2026).
Starred links: 1 amine or outer side, 2 acyl side, 3 side chain; linkers in the order of their positions; H or OH if unused. Positions of bridges follow the written chain, without caps; N, C: chain ends. Non-standard residues stand in square brackets, D forms with d. Primed or numbered codes have the meaning given here. *: point of attachment. TATA = O=C(CC[*:1])N1CN(C(=O)CC[*:2])CN(C(=O)CC[*:3])C1; NOTA = O=C(O)CN1CCN(CC(=O)O)CCN(CC(=O)*)CC1; Hyp = O=C(O)[C@@H]1C[C@@H](O)CN1; hArg = N=C(N)NCCCC[C@H](N)C(=O)O; PEG12′ = not defined here; Nal = naphthylalanine

How the values were obtained:
[1] = biological target: T1, human Nectin-4 (Homo sapiens, UniProt Q96NY8); assay: SPR affinity for recombinant human Nectin-4; assay type: binding; conditions: Biacore T200, CM5 chip, 25°C, His-tagged recombinant protein captured, 1:1 kinetics fit, n = 3
T1 construct: purchased R&D Systems 2659-N4-050
T1 sequence (Q96NY8 32-349 limits assumed): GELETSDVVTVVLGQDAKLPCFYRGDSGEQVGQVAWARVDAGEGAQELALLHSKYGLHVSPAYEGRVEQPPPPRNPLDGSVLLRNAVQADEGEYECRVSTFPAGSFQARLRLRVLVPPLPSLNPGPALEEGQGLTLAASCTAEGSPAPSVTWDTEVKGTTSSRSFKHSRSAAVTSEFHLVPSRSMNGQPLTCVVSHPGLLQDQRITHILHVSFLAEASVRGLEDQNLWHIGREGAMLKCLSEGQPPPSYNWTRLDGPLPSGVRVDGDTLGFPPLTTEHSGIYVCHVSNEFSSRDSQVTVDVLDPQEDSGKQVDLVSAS
Protocol: (§1) The affinity of AJ647 for human and mouse Nectin-4 recombinant proteins was evaluated by SPR. The experiments were conducted using a Biacore T200 instrument with a CM5 chip at 25°C. The ligands used were His-tagged human Nectin-4 (R&D Systems, catalog no. 2659-N4-050, 44 kDa, 0.2 mg/ml stock concentration) and mouse Nectin-4 proteins (R&D Systems, catalog no. 3116-N4-050, 45 kDa, 0.2 mg/ml stock concentration), which were immobilized onto the CM5 chip. AJ647 (3057.5 Da, 10 mM stock concentration) was used as the analyte, which flowed over the ligand-immobilized surface. FC2 and FC4 was used as the experimental flow cell, while FC1 and FC3 served as the reference. An anti-His antibody (1 mg/ml stock concentration) was immobilized on all flow cells using standard amine coupling chemistry. […] Human Nectin-4 was captured onto FC2 at a level of ~600 RU, with a 1:20 dilution and 10 μg/ml diluted concentration in PBS-P. Mouse Nectin-4 was captured onto FC4 at a level of 600 RU, with a 1:20 dilution and 10 μg/ml diluted concentration in PBS-P. The theoretical maximum response (Rmax ) values were calculated on the basis of the captured response values (table S1), assuming a 1:1 interaction mechanism. […] All association and dissociation kinetics were evaluated by 1:1 kinetics model fitting.

[2] = biological target: T2, mouse Nectin-4 (Mus musculus, UniProt Q8R007); assay: SPR affinity for recombinant mouse Nectin-4; assay type: binding; conditions: Biacore T200, CM5 chip, 25°C, His-tagged recombinant protein captured, 1:1 kinetics fit, n = 3
T2 construct: purchased R&D Systems 3116-N4-050
T2 sequence (Q8R007 31-347 limits assumed): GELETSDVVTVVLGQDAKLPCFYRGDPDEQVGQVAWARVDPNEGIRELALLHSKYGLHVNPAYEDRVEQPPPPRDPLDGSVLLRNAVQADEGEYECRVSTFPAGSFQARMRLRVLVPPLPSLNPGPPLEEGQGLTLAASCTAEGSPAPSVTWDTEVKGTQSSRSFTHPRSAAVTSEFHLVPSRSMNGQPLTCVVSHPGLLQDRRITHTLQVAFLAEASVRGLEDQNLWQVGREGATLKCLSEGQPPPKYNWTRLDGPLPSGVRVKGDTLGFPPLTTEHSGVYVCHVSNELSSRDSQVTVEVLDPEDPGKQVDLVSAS
Protocol: as §1

[3] = system: bladder cancer cell lines; assay: In vitro blocking of [^68Ga]AJ647 uptake by nonradioactive AJ647; assay type: cell-based; conditions: 2 μM nonradioactive AJ647 (0.2 nmol, blocking dose)
Protocol: In vitro binding of [^68Ga]AJ647 to T24, SCaBER, RT112, UC9, UC14, and HT1376 cells was determined by incubating 1 × 10^6 cells with ~1 μCi of [^68Ga]AJ647 for 30 min at 4°C. After incubation, cells were washed three times with ice-cold PBS containing 0.1% Tween 20 and counted on an automated gamma counter. All cell radioactivity uptake studies were performed in quadruplicate for each cell line and repeated three times.

[4] = system: HT1376 xenografts; assay: In vivo blocking of [^68Ga]AJ647 uptake by nonradioactive AJ647, PET; set-up: species or system NSG mice; conditions: nonradioactive AJ647 2 mg/kg pre-injected; PET-MR 60 min
Protocol: Mice with tumor volumes of ~100 to 150 mm^3 were injected with ~200 μCi [7.4 megabecquerels (MBq)] of [^68Ga]AJ647 in […] of 5% ethanol in saline intravenously and anesthetized under 2.5% isoflurane. PET-computed tomography (CT) images were acquired at 60 min after radiotracer injection at 5 min per bed in an ARGUS small-animal PET/CT scanner (Sedecal, Madrid, Spain) as described previously (n = 3, unless otherwise noted). PET-MR images were acquired on a simultaneous 7T Bruker PET-MR scanner. Dynamic imaging was conducted to evaluate the PK of [^68Ga]AJ647. [^68Ga]AJ647 was injected (with the help of a catheter) after mice were anesthetized under 2.5% isoflurane on the equipment bed. All PET data were reconstructed using the two-dimensional (2D) ordered subset expectation maximization algorithm and corrected for radioactive decay and dead times. The SUV values were calculated by finding %IA on the basis of a calibration factor obtained from a known radioactive quantity and then normalizing by mice weight. Amide software was used to derive SUV values by drawing the region of interest to closely fit tumors. […] For the change in accessible Nectin-4 following EV treatment, ΔSUV was calculated by subtracting baseline (pre-treatment) uptake from posttherapy uptake of [^68Ga]AJ647. TE was quantified by normalizing this change by initial SUV in the same subject controls. […]

[5] = biological target: T3, His-tagged mouse Nectin-4 (R&D Systems, catalog no. 3116-N4-050) (mouse, UniProt Q8R007 31-347); assay: SPR
T3 chain: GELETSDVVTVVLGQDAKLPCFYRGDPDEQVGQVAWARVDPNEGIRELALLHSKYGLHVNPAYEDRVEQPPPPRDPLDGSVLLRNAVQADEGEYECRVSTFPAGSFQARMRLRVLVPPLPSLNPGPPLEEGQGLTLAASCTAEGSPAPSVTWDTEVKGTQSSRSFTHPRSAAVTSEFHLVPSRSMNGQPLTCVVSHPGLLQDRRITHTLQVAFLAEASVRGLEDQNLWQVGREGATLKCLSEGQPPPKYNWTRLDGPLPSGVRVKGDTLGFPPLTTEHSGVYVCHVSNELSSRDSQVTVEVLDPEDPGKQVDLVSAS

[6] = biological target: T4, His-tagged human Nectin-4 (R&D Systems, catalog no. 2659-N4-050) (human, UniProt Q96NY8 32-349); assay: SPR
T4 chain: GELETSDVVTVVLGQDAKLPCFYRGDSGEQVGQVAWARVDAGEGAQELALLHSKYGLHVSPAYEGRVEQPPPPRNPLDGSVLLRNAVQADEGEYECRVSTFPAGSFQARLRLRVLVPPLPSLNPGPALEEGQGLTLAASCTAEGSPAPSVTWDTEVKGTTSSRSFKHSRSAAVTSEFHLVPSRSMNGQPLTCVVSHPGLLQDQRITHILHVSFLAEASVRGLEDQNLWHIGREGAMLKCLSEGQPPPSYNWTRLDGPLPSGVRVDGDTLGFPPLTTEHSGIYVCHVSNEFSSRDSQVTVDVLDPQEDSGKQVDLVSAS

| Molecule | Kd [1] | Kd [2] | effect of co-incubation on radiotracer uptake [3] | effect on [^68Ga]AJ647 uptake in HT1376 xenografts [4] | koff [5] | koff [6] |
| --- | --- | --- | --- | --- | --- | --- |
| CSCC[C@@H]1NC(=O)[C@@H]2CSCCC(=O)N3CN(CN(C3)C(=O)CCSC[C@H](NC(=O)CCOCCOCCOCCOCCOCCOCCOCCOCCOCCOCCOCCOCCNC(=O)CN3CCN(CC(=O)O)CCN(CC(=O)O)CC3)C(=O)N3CCC[C@H]3C(=O)N[C@@H](Cc3cccc4ccccc34)C(=O)N[C@@H](CC(=O)O)C(=O)N2)C(=O)CCSC[C@@H](C(N)=O)NC(=O)[C@H](Cc2c[nH]c3ccccc23)NC(=O)[C@@H]2C[C@@H](O)CN2C(=O)[C@@H]2CCCN2C(=O)[C@H]([C@@H](C)O)NC(=O)[C@H](CO)NC(=O)[C@H](Cc2c[nH]c3ccccc23)NC(=O)[C@@H](CC(=O)O)NC(=O)[C@H](CCCCNC(=N)N)NC1=O [AJ647] | 15 ± 10.1 nM | 14.1 ± 3.4 nM | significantly reduced radiotracer uptake | reduction in tracer uptake | – | – |
| {NOTA-PEG12′}-CP[Nal]DCM[hArg]DWSTP[Hyp]WC-NH2 (linker 1-5-15 via TATA; not fully specified (residue 8)) [AJ647 (NOTA-PEG12 conjugate of the bicyclic peptide AJ632)] | – | – | – | – | 0.0101 s⁻¹ | 0.0106 s⁻¹ |
